molecular target: T1, human 15-PGDH (Homo sapiens, UniProt P15428); test: Differential scanning fluorimetry (DSF), thermal stabilization; type: binding; details: with 200 µM NAD+; 1 µM protein, compound 50 or 250 µM; N/A = no unfolding transition observed in DSF
T1 construct: comprising residues 3–256 of the human HPGD gene (GenBank identifier: 1203982); His6 (GHHHHHH, behind the TEV site) (C, cleaved yes); made in house; host or cells: E. coli BL21(DE3)-R3
T1 sequence (P15428 3-256): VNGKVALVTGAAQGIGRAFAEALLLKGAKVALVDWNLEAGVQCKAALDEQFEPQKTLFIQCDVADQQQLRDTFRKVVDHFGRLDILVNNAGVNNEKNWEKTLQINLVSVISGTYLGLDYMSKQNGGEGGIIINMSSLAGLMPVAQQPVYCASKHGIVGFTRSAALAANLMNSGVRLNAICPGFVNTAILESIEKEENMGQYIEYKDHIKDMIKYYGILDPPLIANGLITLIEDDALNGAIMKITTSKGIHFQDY
Protocol: A correlation between the ΔTm and the inhibitory potency has been shown in a number of protein-ligand systems, particularly for kinases [32]–[34].
Studies to assess the thermal stability of human 15-PGDH in presence of compounds were performed as described previously, with variations. Briefly, the protein was diluted to a final assay concentration of 1 µM in 100 mM Tris buffer pH 8.0, containing 0.01% Tween-20 and 1∶1000 SYPRO orange dye (Invitrogen). […] Compounds were added at a ratio of 1∶5 from appropriate stock solutions in 10% (v/v) DMSO to comprise either 50 or 250 µM final concentrations. Heat denaturation curves were recorded using a RT-PCR instrument (Mx3005p, Agilent) applying a temperature gradient of 2°C/min. […] 2.5 (ftp://ftp.sgc.ox.ac.uk/pub/biophysics) and PRISM 5.0 (GraphPad Software, Inc.).

Row | Structure (SMILES) | ∆Tm [°C] NAD+ [°C]
1 | Brc1ccc(-c2cc3n(n2)CCc2nc4ccccc4n2-3)cc1 [Compound 55] | 3.7
2 | COc1ccc(C2C(C(=O)O)c3ccccc3C(=O)N2Cc2ccccc2)cc1 (centres unmarked) [Compound 35] | 1.2
3 | CNC(C)C(O)c1ccccc1.O=S(=O)(O)O (centres unmarked) [Compound 84] | 1.5
4 | Cc1cc(NC(=O)COC(=O)c2cccc(S(=O)(=O)NC(C)(C)C)c2)no1 [Compound 16] | 3.5
5 | C=CCOC12Oc3ccc(Oc4ccc(OC)c(C=O)c4)cc3C3C(CCCCO)C(CCCCO)C=C(C(=NOCC)CC1N(CCC)C(=O)OCCOCc1ccccc1)C32 (centres unmarked) [Compound 14] | 3.2
6 | CCN(CC)C(=O)c1sc2nc(-c3cccs3)cc(-c3ccc(Cl)cc3)c2c1N [Compound 36] | 0.9
7 | COC(=O)c1cc(CNC(=O)C2(c3ccc(Cl)cc3)CC2)ccc1OC [Compound 20] | 3.1
8 | CN(CCc1ccccn1)CC(=O)Nc1ccc(OC(F)(F)F)cc1 [Compound 78] | 4.0
9 | O=C(c1ccc(N2C(=O)C3CC=C(Cl)CC3C2=O)cc1)N1CCCCC1 (centres unmarked) [Compound 1] | 3.0
10 | CCCCCCOCCCCc1ccc(-c2ccc(OCCCCCCC3CC3)nc2)nn1 [Compound 3] | 2.1
11 | CN(C)C(=O)C(NCCc1c[nH]c2ccccc12)c1ccccc1 (centres unmarked) [Compound 29] | 2.7
12 | Cc1cc(C(=O)N2CCN(C)CC2)c(C)n1C1CC1 [Compound 59] | 6.9
13 | CCCC(NC(=O)Cn1c(-c2cccs2)n[nH]c1=S)c1ccccc1 (centres unmarked) [Compound 23] | 1.2
14 | COc1ccccc1C(=O)Nc1ccc(C(=O)N2CCCC2)cc1 [Compound 4] | 2.2
15 | Cc1ccc2cc3c(N)c(C(=O)N4CCC(C)CC4)sc3nc2c1 [Compound 48] | 0.5
16 | CCCC(C(=O)O)C(C)(C)O (centres unmarked) [Compound 32] | 3.9

same assay, conditions: with 200 µM NADH; 1 µM protein, compound 50 or 250 µM; N/A = no unfolding transition observed in DSF

Row | Structure (SMILES) | ∆Tm [°C] NADH [°C]
17 | Brc1ccc(-c2cc3n(n2)CCc2nc4ccccc4n2-3)cc1 [Compound 55] | 4.7
18 | COc1ccc(C2C(C(=O)O)c3ccccc3C(=O)N2Cc2ccccc2)cc1 (centres unmarked) [Compound 35] | 2.2
19 | CNC(C)C(O)c1ccccc1.O=S(=O)(O)O (centres unmarked) [Compound 84] | -0.1
20 | Cc1cc(NC(=O)COC(=O)c2cccc(S(=O)(=O)NC(C)(C)C)c2)no1 [Compound 16] | 7.8
21 | C=CCOC12Oc3ccc(Oc4ccc(OC)c(C=O)c4)cc3C3C(CCCCO)C(CCCCO)C=C(C(=NOCC)CC1N(CCC)C(=O)OCCOCc1ccccc1)C32 (centres unmarked) [Compound 14] | 7.8
22 | CCN(CC)C(=O)c1sc2nc(-c3cccs3)cc(-c3ccc(Cl)cc3)c2c1N [Compound 36] | 2.9
23 | COc1ccc(CNC(=O)CCn2c(-c3cccc(C)c3)n[nH]c2=S)cc1 [Compound 65] | -0.2
24 | C=CCn1c(=NC(=O)c2cc(C)n(C)n2)sc2cc(Cl)ccc21 [Compound 66] | -0.7
25 | COC(=O)c1cc(CNC(=O)C2(c3ccc(Cl)cc3)CC2)ccc1OC [Compound 20] | 7.9
26 | CN(CCc1ccccn1)CC(=O)Nc1ccc(OC(F)(F)F)cc1 [Compound 78] | -7.6
27 | O=C(c1ccc(N2C(=O)C3CC=C(Cl)CC3C2=O)cc1)N1CCCCC1 (centres unmarked) [Compound 1] | 6.1
28 | CCCCCCOCCCCc1ccc(-c2ccc(OCCCCCCC3CC3)nc2)nn1 [Compound 3] | 6.7
29 | CN(C)C(=O)C(NCCc1c[nH]c2ccccc12)c1ccccc1 (centres unmarked) [Compound 29] | 8.4
30 | Cc1cc(C(=O)N2CCN(C)CC2)c(C)n1C1CC1 [Compound 59] | 1.7
31 | CCCC(NC(=O)Cn1c(-c2cccs2)n[nH]c1=S)c1ccccc1 (centres unmarked) [Compound 23] | 1.6
32 | COc1ccccc1C(=O)Nc1ccc(C(=O)N2CCCC2)cc1 [Compound 4] | 4.7
33 | Cc1ccc2cc3c(N)c(C(=O)N4CCC(C)CC4)sc3nc2c1 [Compound 48] | 3.3
34 | CCCC(C(=O)O)C(C)(C)O (centres unmarked) [Compound 32] | 9.6

same assay, conditions: without cofactor; 1 µM protein, compound 50 or 250 µM; N/A = no unfolding transition observed in DSF

Row | Structure (SMILES) | ∆Tm [°C] apo [°C]
35 | Brc1ccc(-c2cc3n(n2)CCc2nc4ccccc4n2-3)cc1 [Compound 55] | 0.1
36 | COc1ccc(C2C(C(=O)O)c3ccccc3C(=O)N2Cc2ccccc2)cc1 (centres unmarked) [Compound 35] | -0.1
37 | CNC(C)C(O)c1ccccc1.O=S(=O)(O)O (centres unmarked) [Compound 84] | 0.7 ± 0.1
38 | Cc1cc(NC(=O)COC(=O)c2cccc(S(=O)(=O)NC(C)(C)C)c2)no1 [Compound 16] | -1.8
39 | C=CCOC12Oc3ccc(Oc4ccc(OC)c(C=O)c4)cc3C3C(CCCCO)C(CCCCO)C=C(C(=NOCC)CC1N(CCC)C(=O)OCCOCc1ccccc1)C32 (centres unmarked) [Compound 14] | -1.0
40 | CCN(CC)C(=O)c1sc2nc(-c3cccs3)cc(-c3ccc(Cl)cc3)c2c1N [Compound 36] | -1.5
41 | COC(=O)c1cc(CNC(=O)C2(c3ccc(Cl)cc3)CC2)ccc1OC [Compound 20] | 0.3
42 | CN(CCc1ccccn1)CC(=O)Nc1ccc(OC(F)(F)F)cc1 [Compound 78] | -7.4
43 | O=C(c1ccc(N2C(=O)C3CC=C(Cl)CC3C2=O)cc1)N1CCCCC1 (centres unmarked) [Compound 1] | -0.1
44 | CCCCCCOCCCCc1ccc(-c2ccc(OCCCCCCC3CC3)nc2)nn1 [Compound 3] | -0.6
45 | CN(C)C(=O)C(NCCc1c[nH]c2ccccc12)c1ccccc1 (centres unmarked) [Compound 29] | -0.1
46 | Cc1cc(C(=O)N2CCN(C)CC2)c(C)n1C1CC1 [Compound 59] | -6.1
47 | CCCC(NC(=O)Cn1c(-c2cccs2)n[nH]c1=S)c1ccccc1 (centres unmarked) [Compound 23] | -0.4
48 | COc1ccccc1C(=O)Nc1ccc(C(=O)N2CCCC2)cc1 [Compound 4] | 0.3
49 | Cc1ccc2cc3c(N)c(C(=O)N4CCC(C)CC4)sc3nc2c1 [Compound 48] | -0.6
50 | CCCC(C(=O)O)C(C)(C)O (centres unmarked) [Compound 32] | -1.4

molecular target: T1, human 15-PGDH; test: qHTS and 24-point re-test: fluorescence assay of NAD+ reduction to NADH on PGE2 oxidation (PubChem AID 894); type: biochemical; details: potency in 24-point titrations on re-test; 20 nM 15-PGDH, 1 mM NAD+, 30 µM PGE2, pH 8.0; read-out: qHTS IC50
Protocol: The assay was miniaturized to a 4-µL volume in 1536-well format: enzyme (3 µL) was dispensed first, followed by a pintool transfer of library compounds dissolved in DMSO. After equilibration, a substrate dispense (1 µL) initiated the enzymatic reaction (see Materials and Methods, for detailed protocol description). […] Hits associated with low-efficacy (<40% maximum inhibition), incomplete curves, as well as those displaying only a single-point inhibition at the top concentration tested were eliminated from further consideration. Similarly, the collection of real-time kinetic data allowed the autofluorescence of each compound to be evaluated by comparing the initial fluorescence read at top concentration with the mean value of uninhibited assay controls: compounds whose top-concentration initial well fluorescence exceeded six standard deviations over the mean were flagged as potential autofluorescent artifacts, [28] (see example in supplementary information Figure S1E). The complete screening and followup results are available in PubChem (PubChem Assay ID 894).
The enzymatic reaction was performed in 50 mM Tris-HCl pH 8.0, containing 0.01% Tween 20. […] The high-throughput screen was performed on a fully integrated robotic system (Kalypsys Inc, San Diego, CA) as described elsewhere. Library compounds, arrayed as seven-point inter-plate concentration series, were screened from the lowest (3.5 nM) to the highest (57.5 µM) concentration, with plates containing DMSO only, serving to note any systematic drifts in the signal, interspersed evenly throughout the screen (approximately every 50 plates). Briefly, 3 µL of reagents were dispensed into 1536-well Greiner black solid-bottom assay plates using integrated nanoliter solenoid-technology dispensers. Compounds and controls (23 nL) were transferred via Kalypsys pintool equipped with 1,536-pin array (10-nL slotted pins; V&P Scientific, Palo Alto, CA). After a 15-minute incubation (to allow for interaction between compound and enzyme), a 1-µL substrate addition step initiated the reaction. Kinetic data were collected on a ViewLux High-throughput CCD imager (Perkin-Elmer) equipped with standard UV fluorescence optics (exc. 340 nm, em. 450 nm).
Starting fluorescence intensity and the change in fluorescence over the two-minute initial rate period were recorded for every well. Screening data were normalized against no-enzyme (64 wells, columns 3 and 4) and no-compound (32 wells located in column 1) controls, and concentration-response relationships were derived as described previously. A four-parameter Hill equation [47] was fitted to the concentration-response data using publicly available algorithms (http://www.ncgc.nih.gov/pub/openhts/curvefit/).

Row | Structure (SMILES) | IC50 [nM]
51 | Brc1ccc(-c2cc3n(n2)CCc2nc4ccccc4n2-3)cc1 [Compound 55] | 1120
52 | COc1ccc(C2C(C(=O)O)c3ccccc3C(=O)N2Cc2ccccc2)cc1 (centres unmarked) [Compound 35] | 7080
53 | CNC(C)C(O)c1ccccc1.O=S(=O)(O)O (centres unmarked) [Compound 84] | 1410
54 | Cc1cc(NC(=O)COC(=O)c2cccc(S(=O)(=O)NC(C)(C)C)c2)no1 [Compound 16] | 224
55 | C=CCOC12Oc3ccc(Oc4ccc(OC)c(C=O)c4)cc3C3C(CCCCO)C(CCCCO)C=C(C(=NOCC)CC1N(CCC)C(=O)OCCOCc1ccccc1)C32 (centres unmarked) [Compound 14] | 251
56 | CCN(CC)C(=O)c1sc2nc(-c3cccs3)cc(-c3ccc(Cl)cc3)c2c1N [Compound 36] | 10000
57 | COc1ccc(CNC(=O)CCn2c(-c3cccc(C)c3)n[nH]c2=S)cc1 [Compound 65] | 631
58 | C=CCn1c(=NC(=O)c2cc(C)n(C)n2)sc2cc(Cl)ccc21 [Compound 66] | 355
59 | COC(=O)c1cc(CNC(=O)C2(c3ccc(Cl)cc3)CC2)ccc1OC [Compound 20] | 224
60 | CN(CCc1ccccn1)CC(=O)Nc1ccc(OC(F)(F)F)cc1 [Compound 78] | 2510
61 | O=C(c1ccc(N2C(=O)C3CC=C(Cl)CC3C2=O)cc1)N1CCCCC1 (centres unmarked) [Compound 1] | 251
62 | CCCCCCOCCCCc1ccc(-c2ccc(OCCCCCCC3CC3)nc2)nn1 [Compound 3] | 562
63 | CN(C)C(=O)C(NCCc1c[nH]c2ccccc12)c1ccccc1 (centres unmarked) [Compound 29] | 501
64 | Cc1cc(C(=O)N2CCN(C)CC2)c(C)n1C1CC1 [Compound 59] | 2240
65 | CCCC(NC(=O)Cn1c(-c2cccs2)n[nH]c1=S)c1ccccc1 (centres unmarked) [Compound 23] | 2240
66 | COc1ccccc1C(=O)Nc1ccc(C(=O)N2CCCC2)cc1 [Compound 4] | 1000
67 | Cc1ccc2cc3c(N)c(C(=O)N4CCC(C)CC4)sc3nc2c1 [Compound 48] | 1000
68 | CCCC(C(=O)O)C(C)(C)O (centres unmarked) [Compound 32] | 282

Source: publication PMC2970562, “High-Affinity Inhibitors of Human NAD^+-Dependent 15-Hydroxyprostaglandin Dehydrogenase: Mechanisms of Inhibition and Structure-Activity Relationships” (PLoS ONE, 2010)
